# According to patent US20240417393A1, “CERTAIN 2,5-DIAZABICYCLO[4.2.0]OCTANES AS GLP-1 RECEPTOR MODULATORS” (ASTRAZENECA AB, priority 2021, published 2024):
# Legend:
# human GLP-1R receptor = biological target: T1, human GLP-1R receptor (Homo sapiens, UniProt P43220, L260F); assay: CHOK1 GLP-1R cAMP Assay (HTRF); assay type: cell-based; settings: CHO-K1 cells stably expressing human GLP-1R (Leu260Phe variant), 20 min at rt
# T1 construct: expressed in transfected cells; host or cells: CHO-K1 (ATCC CCL-61)
# Protocol: A cell line stably expressing the human GLP-1R receptor (NM_002062.5, including the naturally-occurring variant Leu260Phe) in a CHO-K1 (ATCC® CCL-61™) was used for assay.
# GLP-1 receptor mediated agonist activity was determined in a cell-based assay measuring cyclic adenosine monophosphate (cAMP) levels in cells using Homogeneous Time-Resolved Fluorescence (HTRF) cAMP detection kit (CisBio catalog #62AM4PEC, cAMP Gs Dynamic range kit). The cAMP detection method is based on a competitive immunoassay, in which cAMP produced by the cells and cAMP labeled with the dye d2 compete for binding to a Europium-Cryptate-labeled anti-cAMP antibody. The specific HTRF signal is inversely proportional to the concentration of cAMP.
# Compounds were added to individual well in 384 well-assay plates (Greiner #784076) using an Echo (LabCyte) dispenser from 10 mM stocks. Varying concentration of compounds were added to wells, and DMSO was used to normalize each well to a volume of 100 nL. A dose response curve of GLP-1(7-36)NH2 (Bachem H-6795) was included in each run. 5 μL of cAMP concentration response standards are applied in specified wells in the assay plates. Cryo-preserved cells are thawed and resuspended in assay buffer pre-heated to 37° C. (20 mM 2-[4-(2-hydroxyethyl)piperazin-1-yl]ethanesulfonic acid (HEPES) pH 7.4, 1× Hank's Balanced Salt Solution (HBSS, Life Technologies #14065) supplemented with 0.1% (w/v) bovine serum albumin (Sigma, A-7030)). Cells were centrifuged at 250*g for 5 min at rt, and resuspended in room tempered assay buffer to a final density of 0.16*10^6 cell/mL, to deliver 800 cells/well. 5 μL of assay buffer with 1 mM 3-isobutyl-1-methylxanthin (IBMX; Sigma cat I-7018) was dispensed per well in assay plates using a multidrop combi (Thermo Scientific) subsequently 5 μL of cell suspension was distributed to relevant wells in the assay using a multidrop dispenser. Assay plates were incubated 20 min at rt.
# Detection reagents, Europium-Cryptate-labeled anti-cAMP antibody and cAMP labeled with the dye d2, are diluted in lysis buffer, provided by the manufacturer. 5 μL of each detection reagent is supplemented to each assay well using a multidrop dispenser. Assay plates are incubated in the dark for at least one h. The HTRF signal is measured using the HTRF module (excitation: 337 nm, emission A: 665 nm and emission B: 620 nm) in Pherastar FSX (BMG Labtech).
# Raw data were converted to pM cAMP using the cAMP standard curve included in each run. Converted data were further analyzed in Genedata Screener (Genedata) and EC50 determinations were made from agonist dose-response curves analyzed with a curve fitting is program using a 4-parameter logistic dose response equation (Equation y=A+((B-A)/1+((C/x)^D))) where A is no stimulation, B is full stimulation, C is the EC50 and D is the Hill slope). The percent effect was determined relative to a saturating concentration of a full GLP-1R agonist (GLP-1(7-36)NH2 has 100% effect in this assay setup).
# [1] = biological target: T2, GLP-1R in a pancreatic insulinoma cell line (EndoC-PH1) (Homo sapiens, UniProt P43220); assay: EndoC cAMP Accumulation Assay (HTRF); assay type: cell-based; settings: EndoC-PH1 human pancreatic beta cell line, endogenous GLP-1R, 30 min at rt
# T2 construct: host or cells: EndoC-βH1 human pancreatic beta cell line
# From the text: EndoC cAMP Accumulation Assay
# A HTRF cAMP assay (cAMP Gs dynamic kit; CisoBio Cat #62AM4PEJ) was used to identify agonists of GLP-1R in a pancreatic insulinoma cell line (EndoC-PH1). […] EndoC-PHlcells have detectable GLP-1R messenger ribonucleic acid (mRNA) as detected by quantitative polymerase chain reaction (qPCR). […] The EndoC-PH1 cell line is a valid model of human beta cells and applicable for screenings to identify novel drug target candidates (Mol. Metab., 2018, 8, 144-157). CisBio HTRF cAMP kits are based on a competitive immunoassay using cryptate-labelled anti-cAMP antibody and d2-labeled cAMP. The detection kit is intended for the direct is quantitative determination of cAMP. The specific signal (i.e. energy transfer) is inversely proportional to the concentration of cAMP in the standard or sample. Test compounds (10 mM in DMSO) were diluted into assay buffer (HBSS (Sigma #H8264) supplemented with 25 mM HEPES (Gibco #15630, pH 7.4), 0.1% BSA (Sigma #A3059) and 0.5 mM IBMX (Sigma #I7018) included fresh on the day of the assay) into 96 well U-bottom plates (Greiner #650201). Diluted compounds were transferred to ECHO source polypropelene plates (Labcyte #P-05525) and dose response curves were dispensed acoustically using ECHO 550 into black shallow-well u-bottom 384-well HTRF Assay Plates (Corning 4514). Cryovials of EndoC-H1 (supplied at 1×10e^7 cells/vial) were used directly for screening. The cryovials and were removed from N2(1) and thawed rapidly in a 37° C. water bath. The cells were resuspended in assay buffer and centrifuged at 300 g for 5 min. Cells were resuspended in assay buffer at the appropriate concentration, typically at 12e5 cells per mL (3000 cells per well, dependent on cell batch) and 2.5 μL diluted cells were added to all wells of destination plate by Multidrop combi reagent dispenser (Thermofisher). The plates were incubated at rt for 30 min. The assay was stopped by adding 2.5 μL anti-cAMP cryptate solution to all wells and 2.5 μL cAMP-d2 solution (both diluted 1:20 in lysis buffer) to columns 1-22 by Combi drop. A volume of 2.5 μL cAMP-d2 solution was added to wells E23 to P24 and 2.5 μL lysis buffer added to wells A23 to D24 by multichannel pipette. The plates were incubated at rt for 1 h and read on an Envision plate reader using excitation wavelength of 320 nm and emission of […] and 660 nm.
# Raw data from Envision is converted to % DeltaF according to the manufacturer's instructions. Dose response curves are analysed via 4-Parameter Logistical Analysis and assay plate Z’ values obtained. Samples are graphed as percentage (%) activation plots compared to […] with assay window defined by negative control as basal cell is cAMP levels and positive control are defined by maximum GIP (82.5 nM) signal. GLP-1 (7-36 amide, Bachem H-6795) dose response curve was included on all plates.
# T2 sequence (P43220 24-463): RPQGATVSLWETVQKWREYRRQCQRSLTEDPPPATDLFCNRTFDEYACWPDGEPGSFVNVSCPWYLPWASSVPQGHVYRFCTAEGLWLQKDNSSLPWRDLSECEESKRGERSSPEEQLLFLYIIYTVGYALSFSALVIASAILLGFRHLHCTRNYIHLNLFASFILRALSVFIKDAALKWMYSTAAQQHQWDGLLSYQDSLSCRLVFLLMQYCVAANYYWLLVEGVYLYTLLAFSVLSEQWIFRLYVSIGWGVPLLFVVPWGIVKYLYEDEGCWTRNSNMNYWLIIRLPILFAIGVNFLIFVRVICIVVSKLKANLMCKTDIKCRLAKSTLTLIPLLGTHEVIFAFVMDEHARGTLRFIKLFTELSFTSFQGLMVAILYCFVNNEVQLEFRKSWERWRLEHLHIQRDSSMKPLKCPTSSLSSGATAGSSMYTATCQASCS
# T1 sequence (P43220 24-463 L260F): as the sequence (P43220 24-463) above, with L237F counted along it
EC50 (human GLP-1R receptor) [nM],EC50 [1] [nM],Structure (SMILES)
1.2,3.1,"COc1cc(C(=O)O)cc2c1nc(CN1CCN(c3cccc4c3O[C@@](C)(c3ccc(Cl)cn3)O4)[C@H]3CC[C@@H]31)n2CC1(C#N)CC1 (single isomer, unassigned) [Example 25c]"
5.3,18,"C[C@]1(c2ccc(Cl)cn2)Oc2cccc(N3CCN(Cc4nc5ccc(C(=O)O)cc5n4C[C@@H]4CCO4)[C@H]4CC[C@@H]43)c2O1 (single isomer, unassigned) [Example 22b, 2-(((1R*,6R*)-5-((R*)-2-(5-Chloropyridin-2-yl)-2-methylbenzo[d][1,3]dioxol-4-yl)-2,5-diazabicyclo[4.2.0]octan-2-yl)methyl)-1-(((S)-oxetan-2-yl)methyl)-1H-benzo[d]imidazole-6-carboxylic acid]"
1.1,2.8,"C[C@]1(c2ccc(Cl)cn2)Oc2cccc(N3CCN(Cc4nc5c(F)cc(C(=O)O)cc5n4CC4(CC#N)CC4)[C@H]4CC[C@@H]43)c2O1 (single isomer, unassigned) [Example 23a]"
200,320,"COc1cc2nc(CN3CCN(c4cccc5c4OC(C)(c4ccc(Cl)cn4)O5)[C@H]4CC[C@@H]43)n(C[C@@H]3CCO3)c2cc1C(=O)O (mixture of isomers) [Example 12, 2-(((1RS,6RS)-5-(2-(5-Chloropyridin-2-yl)-2-methylbenzo[d][1,3]dioxol-4-yl)-2,5-diazabicyclo[4.2.0]octan-2-yl)methyl)-5-methoxy-1-(((S)-oxetan-2-yl)methyl)-1H-benzo[d]imidazole-6-carboxylic acid]"
18,120,"C[C@]1(c2ccc(Cl)cn2)Oc2cccc(N3CCN(Cc4nc5ccc(C(=O)O)cc5n4C[C@@H]4CCO4)[C@H]4CC[C@H]43)c2O1 (single isomer, unassigned) [Example 5b, 2-((1R*,6S*)-5-(R*)-2-(5-Chloropyridin-2-yl)-2-methylbenzo[d][1,3]dioxol-4-yl)-2,5-diazabicyclo[4.2.0]octan-2-yl)methyl)-1-(((S)-oxetan-2-yl)methyl)-1H-benzo[d]imidazole-6-carboxylic acid]"
27,72,"COc1cc(C(=O)O)cc2c1nc(CN1CCN(c3cccc4c3O[C@@](C)(c3ccc(Cl)cn3)O4)[C@H]3CC[C@@H]31)n2C[C@@H]1CCCO1 (single isomer, unassigned) [Example 7a, 2-(((1R*,6R*)-5-((R*)-2-(5-Chloropyridin-2-yl)-2-methylbenzo[d][1,3]dioxol-4-yl)-2,5-diazabicyclo[4.2.0]octan-2-yl)methyl)-4-methoxy-1-(((S)-tetrahydrofuran-2-yl)methyl)-1H-benzo[d]imidazole-6-carboxylic acid]"
110,32,"COc1cc(C(=O)O)cc2c1nc(CN1CCN(c3cccc4c3O[C@@](C)(c3ccc(Cl)cn3)O4)[C@H]3CC[C@@H]31)n2C[C@@H]1CCCO1 (single isomer, unassigned) [Example 7c, 2-(((1R*,6R*)-5-((R*)-2-(5-Chloropyridin-2-yl)-2-methylbenzo[d][1,3]dioxol-4-yl)-2,5-diazabicyclo[4.2.0]octan-2-yl)methyl)-4-methoxy-1-(((S)-tetrahydrofuran-2-yl)methyl)-1H-benzo[d]imidazole-6-carboxylic acid]"
340,2200,"C[C@]1(c2ccc(Cl)cc2F)Oc2cccc(N3CCN(Cc4nc5ccc(C(=O)O)cc5n4C[C@@H]4CCO4)[C@H]4CC[C@@H]43)c2O1 (single isomer, unassigned) [Example 21b, 2-(((1R*,6R*)-5-((R*)-2-(4-Chloro-2-fluorophenyl)-2-methylbenzo[d][1,3]dioxol-4-yl)-2,5-diazabicyclo[4.2.0]octan-2-yl)methyl)-1-(((S)-oxetan-2-yl)methyl)-1H-benzo[d]imidazole-6-carboxylic acid]"
240,1000,"CCn1ccnc1Cn1c(CN2CCN(c3cccc4c3O[C@@](C)(c3ccc(Cl)cn3)O4)[C@H]3CC[C@@H]32)nc2c(Cl)cc(C(=O)O)cc21 (single isomer, unassigned) [Example 10c]"
180,1800,"C[C@]1(c2ccc(Cl)cn2)Oc2cccc(N3CCN(Cc4nc5ccc(C(=O)O)cc5n4C[C@@H]4CCO4)[C@H]4CC[C@H]43)c2O1 (single isomer, unassigned) [Example 5c]"
2.1,8,"C[C@]1(c2ccc(Cl)cn2)Oc2cccc(N3CCN(Cc4nc5c(F)cc(C(=O)O)cc5n4CC4(C#N)CC4)[C@H]4CC[C@@H]43)c2O1 (single isomer, unassigned) [Example 24b]"
2.3,4.3,"C[C@]1(c2ccc(Cl)cc2F)Oc2cccc(N3CCN(Cc4nc5c(F)cc(C(=O)O)cc5n4C[C@@H]4CCO4)[C@H]4CC[C@H]43)c2O1 (relative stereo) [Example 9d, 2-((1R*,6S*)-5-(R*)-2-(4-Chloro-2-fluorophenyl)-2-methylbenzo[d][1,3]dioxol-4-yl)-2,5-diazabicyclo[4.2.0]octan-2-yl)methyl)-4-fluoro-1-(((S)-oxetan-2-yl)methyl)-1H-benzo[d]imidazole-6-carboxylic acid]"
66,280,"C[C@]1(c2ccc(Cl)cn2)Oc2cccc(N3CCN(Cc4nc5c(F)cc(C(=O)O)cc5n4C[C@@H]4CCO4)[C@H]4CC[C@H]43)c2O1 (single isomer, unassigned) [Example 1a, 2-((1R*,6S*)-5-(R*)-2-(5-Chloropyridin-2-yl)-2-methylbenzo[d][1,3]dioxol-4-yl)-2,5-diazabicyclo[4.2.0]octan-2-yl)methyl)-4-fluoro-1-(((S)-oxetan-2-yl)methyl)-1H-benzo[d]imidazole-6-carboxylic acid]"
